Measurements from patent US12304890B2, “R-type pyridyloxycarboxylic acid, salt and ester derivative thereof, and preparation method therefor, and herbicidal composition and application thereof” (Qingdao Kingagroot Chemical Compound Co., Ltd., priority 2018, dated 2025).

Columns and labels:
Assay type in all cases: in vivo
[1] = tested on: Echinochloa crusgalli; assay: Post-emergence test experiment, Echinochloa crusgalli; conditions: 1000 g a.i./ha, 3 weeks in greenhouse, fresh weight inhibition
Experimental: (§1) The above described growth inhibition rate is fresh weight inhibition rate.
(§2) Post-emergence test experiment: Monocotyledonous and dicotyledonous weed seeds and main crop seeds (i. e. wheat, corn, rice, soybean, cotton, oilseed, millet and sorghum.) were put into a plastic pot loaded with soil. Then covered with 0.5-2 cm soil, the seeds were allowed to grow in good greenhouse environment. The test plants were treated at 2-3 leaf stage 2 weeks after sowing. The test compounds of the invention were dissolved with acetone respectively, then added with tween-80, and using 1.5 liters per hectare of an emulsible concentrate of methyl oleate as a synergist, and diluted by certain amount of water to certain concentration. The solution was sprayed to the plants with a sprayer. Then the plants were cultured for 3 weeks in the greenhouse, and the experiment result of weed controlling effect was listed in tables 4-5.

[2] = tested on: Digitaria sanguinalis; assay: Post-emergence test experiment, Digitaria sanguinalis; conditions: 1000 g a.i./ha, 3 weeks in greenhouse, fresh weight inhibition
Experimental: as §1, §2

[3] = tested on: Monocotyledonous and dicotyledonous weed seeds and main crop seeds; assay: Post-emergence test experiment, other weeds and crops (Table 4, 1000 g a.i./ha); conditions: 3 weeks in greenhouse, fresh weight inhibition
In short: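 Weed and crop seeds (wheat, corn, rice, soybean, cotton, oilseed, millet, sorghum) sown in soil pots in a greenhouse and sprayed at 2-3 leaf stage, 2 weeks after sowing. Compound in acetone/tween-80 with methyl oleate concentrate (1.5 L/ha) as synergist. Effect recorded as fresh-weight growth inhibition rate.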

COC(=O)OC(C)OC(=O)C(C)Oc1nc(F)c(Cl)c(N)c1Cl (stereo not drawn) [Compound 2-296]
Activity level (growth inhibition rate), Echinochloa crusgalli [1]: 5 (Level 5: the growth inhibition rate is greater than 85%)
Activity level (growth inhibition rate), Digitaria sanguinalis [2]: 5 (Level 5: the growth inhibition rate is greater than 85%)
Activity level (growth inhibition rate), Abutilon theophrasti Medic. [3]: 5 (Level 5: the growth inhibition rate is greater than 85%)
Activity level (growth inhibition rate), Galium aparine [3]: 5 (Level 5: the growth inhibition rate is greater than 85%)
Activity level (growth inhibition rate), Monochoria Vaginalis [3]: 5 (Level 5: the growth inhibition rate is greater than 85%)

C[C@@H](Oc1nc(F)c(Cl)c(N)c1Cl)C(=O)OCC(F)F [Compound 2-279]
Activity level (growth inhibition rate), Echinochloa crusgalli [1]: 5 (Level 5: the growth inhibition rate is greater than 85%)
Activity level (growth inhibition rate), Digitaria sanguinalis [2]: 5 (Level 5: the growth inhibition rate is greater than 85%)
Activity level (growth inhibition rate), Abutilon theophrasti Medic. [3]: 5 (Level 5: the growth inhibition rate is greater than 85%)
Activity level (growth inhibition rate), Galium aparine [3]: 5 (Level 5: the growth inhibition rate is greater than 85%)
Activity level (growth inhibition rate), Monochoria Vaginalis [3]: 5 (Level 5: the growth inhibition rate is greater than 85%)

CC(N)CN.CC(Oc1nc(F)c(Cl)c(N)c1Cl)C(=O)S (stereo not drawn) [Compound 2-17]
Activity level (growth inhibition rate), Echinochloa crusgalli [1]: 5 (Level 5: the growth inhibition rate is greater than 85%)
Activity level (growth inhibition rate), Digitaria sanguinalis [2]: 5 (Level 5: the growth inhibition rate is greater than 85%)
Activity level (growth inhibition rate), Abutilon theophrasti Medic. [3]: 5 (Level 5: the growth inhibition rate is greater than 85%)
Activity level (growth inhibition rate), Galium aparine [3]: 5 (Level 5: the growth inhibition rate is greater than 85%)
Activity level (growth inhibition rate), Monochoria Vaginalis [3]: 5 (Level 5: the growth inhibition rate is greater than 85%)

CC(Oc1nc(F)c(Cl)c(N)c1Cl)C(=O)OC1CCC1 (stereo not drawn) [Compound 2-264]
Activity level (growth inhibition rate), Echinochloa crusgalli [1]: 5 (Level 5: the growth inhibition rate is greater than 85%)
Activity level (growth inhibition rate), Digitaria sanguinalis [2]: 5 (Level 5: the growth inhibition rate is greater than 85%)
Activity level (growth inhibition rate), Abutilon theophrasti Medic. [3]: 5 (Level 5: the growth inhibition rate is greater than 85%)
Activity level (growth inhibition rate), Galium aparine [3]: 5 (Level 5: the growth inhibition rate is greater than 85%)
Activity level (growth inhibition rate), Monochoria Vaginalis [3]: 5 (Level 5: the growth inhibition rate is greater than 85%)

Cc1cc(OC(=O)[C@@H](C)Oc2nc(F)c(Cl)c(N)c2Cl)n(C)n1 [Compound 2-352]
Activity level (growth inhibition rate), Echinochloa crusgalli [1]: 5 (Level 5: the growth inhibition rate is greater than 85%)
Activity level (growth inhibition rate), Digitaria sanguinalis [2]: 5 (Level 5: the growth inhibition rate is greater than 85%)
Activity level (growth inhibition rate), Abutilon theophrasti Medic. [3]: 5 (Level 5: the growth inhibition rate is greater than 85%)
Activity level (growth inhibition rate), Galium aparine [3]: 5 (Level 5: the growth inhibition rate is greater than 85%)
Activity level (growth inhibition rate), Monochoria Vaginalis [3]: 5 (Level 5: the growth inhibition rate is greater than 85%)

CC(Oc1nc(F)c(Cl)c(N)c1Cl)C(=O)OCc1ccccc1F (stereo not drawn) [Compound 2-308]
Activity level (growth inhibition rate), Echinochloa crusgalli [1]: 5 (Level 5: the growth inhibition rate is greater than 85%)
Activity level (growth inhibition rate), Digitaria sanguinalis [2]: 5 (Level 5: the growth inhibition rate is greater than 85%)
Activity level (growth inhibition rate), Abutilon theophrasti Medic. [3]: 5 (Level 5: the growth inhibition rate is greater than 85%)
Activity level (growth inhibition rate), Galium aparine [3]: 5 (Level 5: the growth inhibition rate is greater than 85%)
Activity level (growth inhibition rate), Monochoria Vaginalis [3]: 5 (Level 5: the growth inhibition rate is greater than 85%)

CC(Oc1nc(F)c(Cl)c(N)c1Cl)C(=O)OC(N)C(=O)O (stereo not drawn) [Compound 2-371]
Activity level (growth inhibition rate), Echinochloa crusgalli [1]: 5 (Level 5: the growth inhibition rate is greater than 85%)
Activity level (growth inhibition rate), Digitaria sanguinalis [2]: 5 (Level 5: the growth inhibition rate is greater than 85%)
Activity level (growth inhibition rate), Abutilon theophrasti Medic. [3]: 5 (Level 5: the growth inhibition rate is greater than 85%)
Activity level (growth inhibition rate), Galium aparine [3]: 5 (Level 5: the growth inhibition rate is greater than 85%)
Activity level (growth inhibition rate), Monochoria Vaginalis [3]: 5 (Level 5: the growth inhibition rate is greater than 85%)

Cc1ccc(COC(=O)C(C)Oc2nc(F)c(Cl)c(N)c2Cl)cc1 (stereo not drawn) [Compound 2-306]
Activity level (growth inhibition rate), Echinochloa crusgalli [1]: 5 (Level 5: the growth inhibition rate is greater than 85%)
Activity level (growth inhibition rate), Digitaria sanguinalis [2]: 5 (Level 5: the growth inhibition rate is greater than 85%)
Activity level (growth inhibition rate), Abutilon theophrasti Medic. [3]: 5 (Level 5: the growth inhibition rate is greater than 85%)
Activity level (growth inhibition rate), Galium aparine [3]: 5 (Level 5: the growth inhibition rate is greater than 85%)
Activity level (growth inhibition rate), Monochoria Vaginalis [3]: 5 (Level 5: the growth inhibition rate is greater than 85%)

CC(Oc1nc(F)c(Cl)c(N)c1Cl)C(=O)Oc1ccccc1 (stereo not drawn) [Compound 2-299]
Activity level (growth inhibition rate), Echinochloa crusgalli [1]: 5 (Level 5: the growth inhibition rate is greater than 85%)
Activity level (growth inhibition rate), Digitaria sanguinalis [2]: 5 (Level 5: the growth inhibition rate is greater than 85%)
Activity level (growth inhibition rate), Abutilon theophrasti Medic. [3]: 5 (Level 5: the growth inhibition rate is greater than 85%)
Activity level (growth inhibition rate), Galium aparine [3]: 5 (Level 5: the growth inhibition rate is greater than 85%)
Activity level (growth inhibition rate), Monochoria Vaginalis [3]: 5 (Level 5: the growth inhibition rate is greater than 85%)

CC(Oc1nc(F)c(Cl)c(N)c1Cl)C(=O)SCc1cccc(Cl)c1 (stereo not drawn) [Compound 2-317]
Activity level (growth inhibition rate), Echinochloa crusgalli [1]: 5 (Level 5: the growth inhibition rate is greater than 85%)
Activity level (growth inhibition rate), Digitaria sanguinalis [2]: 5 (Level 5: the growth inhibition rate is greater than 85%)
Activity level (growth inhibition rate), Abutilon theophrasti Medic. [3]: 5 (Level 5: the growth inhibition rate is greater than 85%)
Activity level (growth inhibition rate), Galium aparine [3]: 5 (Level 5: the growth inhibition rate is greater than 85%)
Activity level (growth inhibition rate), Monochoria Vaginalis [3]: 5 (Level 5: the growth inhibition rate is greater than 85%)

CC(Oc1nc(F)c(Cl)c(N)c1Cl)C(=O)OCc1cccc(Cl)c1 (stereo not drawn) [Compound 2-316]
Activity level (growth inhibition rate), Echinochloa crusgalli [1]: 5 (Level 5: the growth inhibition rate is greater than 85%)
Activity level (growth inhibition rate), Digitaria sanguinalis [2]: 5 (Level 5: the growth inhibition rate is greater than 85%)
Activity level (growth inhibition rate), Abutilon theophrasti Medic. [3]: 5 (Level 5: the growth inhibition rate is greater than 85%)
Activity level (growth inhibition rate), Galium aparine [3]: 5 (Level 5: the growth inhibition rate is greater than 85%)
Activity level (growth inhibition rate), Monochoria Vaginalis [3]: 5 (Level 5: the growth inhibition rate is greater than 85%)

CCC(CC)OC(=O)[C@@H](C)Oc1nc(F)c(Cl)c(N)c1Cl [Compound 2-97]
Activity level (growth inhibition rate), Echinochloa crusgalli [1]: 5 (Level 5: the growth inhibition rate is greater than 85%)
Activity level (growth inhibition rate), Digitaria sanguinalis [2]: 5 (Level 5: the growth inhibition rate is greater than 85%)
Activity level (growth inhibition rate), Abutilon theophrasti Medic. [3]: 5 (Level 5: the growth inhibition rate is greater than 85%)
Activity level (growth inhibition rate), Galium aparine [3]: 5 (Level 5: the growth inhibition rate is greater than 85%)
Activity level (growth inhibition rate), Monochoria Vaginalis [3]: 5 (Level 5: the growth inhibition rate is greater than 85%)
